Laboratory results reported in patent US10927096B2, “Ester substituted ion channel blockers and methods for use” (Nocion Therapeutics, Inc., priority 2019, dated 2021).

Experiments:
[1] = target: T1, NaV1.7 (Homo sapiens, UniProt Q15858); assay: Whole cell patch clamp, external block of NaV1.7 current; assay type: cell-based; conditions: % inhibition, compound in external solution, manual whole cell patch clamp, read-out: Nav1.7 Extracellular Inhibition; for inhibition at 3 µM: test concentration 3 μM; for inhibition at 1 µM: test concentration 1 μM; for inhibition at 100 µM: test concentration 100 μM; for inhibition at 10 µM: test concentration 10 μM; for inhibition at 30 µM: test concentration 30 μM
T1 construct: expressed in transfected cells; host or cells: HEK293, tetracycline-inducible
T1 sequence (Q15858 whole entry): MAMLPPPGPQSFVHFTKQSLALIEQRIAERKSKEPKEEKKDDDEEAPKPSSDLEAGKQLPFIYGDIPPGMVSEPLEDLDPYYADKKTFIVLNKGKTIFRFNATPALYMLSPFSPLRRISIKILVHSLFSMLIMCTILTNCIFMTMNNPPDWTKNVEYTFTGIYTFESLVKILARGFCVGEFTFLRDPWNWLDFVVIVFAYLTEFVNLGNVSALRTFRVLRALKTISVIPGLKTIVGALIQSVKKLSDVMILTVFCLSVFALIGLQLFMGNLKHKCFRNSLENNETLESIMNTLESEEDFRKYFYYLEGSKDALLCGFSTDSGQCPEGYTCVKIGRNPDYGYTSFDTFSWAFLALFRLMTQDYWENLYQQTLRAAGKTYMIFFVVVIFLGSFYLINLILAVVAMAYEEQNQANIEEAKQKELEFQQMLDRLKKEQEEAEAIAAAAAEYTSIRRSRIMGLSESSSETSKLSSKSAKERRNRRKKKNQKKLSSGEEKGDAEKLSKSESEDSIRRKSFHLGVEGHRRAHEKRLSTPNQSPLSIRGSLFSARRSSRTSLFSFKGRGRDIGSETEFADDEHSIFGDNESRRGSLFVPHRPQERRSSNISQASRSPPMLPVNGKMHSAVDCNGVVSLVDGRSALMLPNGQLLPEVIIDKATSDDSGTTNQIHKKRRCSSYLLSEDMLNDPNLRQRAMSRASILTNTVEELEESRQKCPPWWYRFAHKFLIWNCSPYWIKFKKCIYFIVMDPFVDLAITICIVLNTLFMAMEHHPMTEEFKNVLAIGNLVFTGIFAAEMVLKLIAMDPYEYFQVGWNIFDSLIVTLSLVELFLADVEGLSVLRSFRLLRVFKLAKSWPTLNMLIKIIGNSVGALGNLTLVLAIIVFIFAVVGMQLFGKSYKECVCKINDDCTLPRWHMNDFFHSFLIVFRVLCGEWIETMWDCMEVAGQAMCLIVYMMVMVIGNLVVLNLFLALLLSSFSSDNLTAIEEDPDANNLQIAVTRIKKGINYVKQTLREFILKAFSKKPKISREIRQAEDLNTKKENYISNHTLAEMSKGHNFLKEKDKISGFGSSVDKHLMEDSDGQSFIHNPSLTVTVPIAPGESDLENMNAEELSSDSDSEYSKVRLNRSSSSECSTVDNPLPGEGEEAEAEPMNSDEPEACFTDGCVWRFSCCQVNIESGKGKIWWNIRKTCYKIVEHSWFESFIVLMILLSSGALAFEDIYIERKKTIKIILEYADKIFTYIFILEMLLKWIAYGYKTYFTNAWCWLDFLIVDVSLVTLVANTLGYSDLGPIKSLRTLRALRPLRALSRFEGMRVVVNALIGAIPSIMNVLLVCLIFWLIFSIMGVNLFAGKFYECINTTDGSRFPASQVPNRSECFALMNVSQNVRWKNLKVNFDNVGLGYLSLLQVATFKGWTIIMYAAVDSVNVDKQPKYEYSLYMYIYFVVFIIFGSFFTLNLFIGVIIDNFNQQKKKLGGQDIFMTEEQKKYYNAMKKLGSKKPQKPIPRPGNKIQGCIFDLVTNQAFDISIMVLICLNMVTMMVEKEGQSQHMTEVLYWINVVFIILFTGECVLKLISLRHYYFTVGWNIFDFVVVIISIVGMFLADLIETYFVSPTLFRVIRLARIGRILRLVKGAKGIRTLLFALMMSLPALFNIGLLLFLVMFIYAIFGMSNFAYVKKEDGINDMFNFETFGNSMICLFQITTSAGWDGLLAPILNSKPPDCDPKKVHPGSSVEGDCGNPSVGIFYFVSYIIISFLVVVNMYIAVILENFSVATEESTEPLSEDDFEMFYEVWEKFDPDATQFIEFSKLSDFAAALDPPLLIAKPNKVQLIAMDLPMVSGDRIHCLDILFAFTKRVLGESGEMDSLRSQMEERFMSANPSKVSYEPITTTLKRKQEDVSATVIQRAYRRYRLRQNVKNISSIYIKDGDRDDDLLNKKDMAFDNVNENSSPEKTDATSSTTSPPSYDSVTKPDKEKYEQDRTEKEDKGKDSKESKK
Procedure: (§1) NaV1.7 was expressed upon induction with tetracycline. Cells were cultured in DMEM containing 10% dialyzed Fetal Bovine Serum (VWR, Radnor, Pa.), 1% Glutamax (VWR, Radnor, Pa.), 1% Penicillin-Streptomycin (VWR, Radnor, Pa.), 100 mg/L Hygromycin (Thermo Fisher Scientific, Waltham, Mass. and 5 mg/L Blasticidin (Alfa Aesar, Haverhill, Mass.). Cells were grown and maintained at 37° C. in a humidified environment containing 10% C02 in air. Cells were detached from the culture flask for passage and harvested using 0.05% Trypsin-EDTA (Thermo Fisher Scientific, Waltham, Mass.). To induce NaV1.7, cells were induced with tetracycline (0.1-1 μg/mL, IBI Scientific, Peosta, Iowa) the day before recording and plated onto 24-well plates. Cells were washed with DPBS (VWR, Radnor, Pa.), trypsinized and then triturated five times in 10 mL of growth media to break apart cell aggregates. For one 24-well plate, 2 mL of cell suspension was mixed with 23 mL of fresh growth media and 0.1-1 μg/mL tetracycline added. 1 ml of mixed media with cells was then added to each well of a 24-well plate, with a 12 mm coverslip already placed in the bottom of the well. Cells were then incubated in 37° C. and 10% CO2 overnight.
(§2) The intracellular solution contained the following (in mM) CsCl 135, NaCl 10, EGTA 10, HEPES 10, MgCl2 2, adjusted to pH 7.2 with CsOH. The external solution was a normal Ringer solution containing (in mM) NaCl 155, HEPES 10, glucose 10, KCl 3.5, CaCl2 1.5, MgCl2 1 adjusted to pH 7.4 with NaOH. CsCl is from Alfa Aesar, Haverhill, Mass. All other chemicals are from Sigma-Aldrich, St. Louis, Mo. In order to test the degree of internal block by test compounds the compounds were dissolved in internal solution at the indicated test concentration. […] In order to test the degree of external block by test compounds the compounds were dissolved in external solution at the indicated test concentration.
(§3) 18-24 hours after cells were induced with tetracycline, coverslips were placed into a chamber filled with Normal Ringer solution at room temperature and the chamber placed on a microscope. Pipettes were pulled from borosilicate glass on a P97 puller (Sutter Instrument, Novato, Calif.) and polished with a MF-830 Microforge (Narishige International USA, Inc, Amityville, N.Y.) to have a resistance of 1.5-2.5 MΩ when filled with CsCl internal solution at room temperature. Healthy cells (those that are round and translucent with no visible blemishes) were chosen for seal formation. A seal was formed between the pipette and the cell, and a brief pulse of suction was used to “break in” and establish the whole-cell configuration. The membrane potential was held at −100 mV before the voltage protocol began. Only cells with series resistance between 1.5-5 MΩ were retained for analysis. The voltage protocol was as follows: Cells were held at −100 mV for 12 ms followed by a hyperpolarizing step to −105 mV for 12 ms to monitor the leak. Cells were then stepped back to −100 mV for 40 ms. Cells were then depolarized to −20 mV for 10 ms and then returned to −100 mV for 26 ms (The FIGURE).
Once the recording was started, the voltage protocol was run at 30 second intervals for 5 minutes to get a stable baseline. This is followed by 5 Hz stimulation of the same voltage protocol run until the end of experiment. […] The test compound is added for 5 minutes before washing out with normal Ringer's solution. Currents were recorded using PatchMaster software with Heka EPC10 (HEKA Electronics, Lambrecht, Germany). Only cells with inward current amplitudes at −20 mV between 400 pA and 4 nA were accepted. In addition, cells having leak currents greater than 10% of their current amplitudes were discarded.
(§4) The data was plotted using the Patchmaster software (HEKA Electronics, Lambrecht, Germany) and analyzed by plotting the minimum current during the voltage step to −20 mV (peak inward current) as a function of time. […]

[2] = target: T1, NaV1.7; assay: Whole cell patch clamp, internal block of NaV1.7 current; assay type: cell-based; conditions: % inhibition at 1 μM test concentration, compound in internal solution, manual whole cell patch clamp
Procedure: as §1, §2, §3
Once the recording was started, the voltage protocol was run at 30 second intervals for 5 minutes to get a stable baseline. This was followed by four 30-second periods of 5 Hz stimulation of the same voltage protocol separated by 1 minute of rest which was then followed by 0.33 Hz stimulation after the last train. Currents were recorded using PatchMaster software with Heka EPC10 (HEKA Electronics, Lambrecht, Germany). Only cells with inward current amplitudes at −20 mV between 400 pA and 4 nA were accepted. In addition, cells having leak currents greater than 10% of their current amplitudes were discarded.
as §4

[3] = PAMPA membrane permeability assay; assay type: physicochemical; conditions: pH 7.4 buffer, GIT lipid, 4 hours incubation
Procedure: The PAMPA assay (pION, Inc., Woburn Mass.) was used to determine the ability of compounds of the invention to cross an artificial lipid membrane by passive diffusion. Test compounds were dissolved in DMSO (10 mM) and diluted 200-fold in buffer (pION Inc., pH 7.4) to provide 50 uM stock solutions. Buffer (150 μL) was added to a UV blank plate and stock solutions (150 μL) were transferred to a UV reference plate. The blank and reference spectrum were read using a spectrophotometer. Stock solutions (200 μL) were added to the donor plate of the PAMPA sandwich plate and an accept plate painted with GIT lipid (pION Inc, 5 μL) was placed on top. Buffer (200 μL) was added to the acceptor plate and the PAMPA sandwich plate was incubated for 4 hours. Aliquots (150 μL) from the acceptor plate were added to a UV plate and read as acceptor spectrum. Aliquots (150 μL) of the donor solutions were added to a UV analysis plate and read as donor spectrum. The permeability coefficient of test compounds was calculated using PAMPA Explorer™ software (version 3.5.0.4) based on the AUC of the reference plate, the donor plate, and the acceptor plate.
The PAMPA permeability results (10^−6 cm/s) of representative compounds are reported as “+” (<0.1 10^−6 cm/s), “++” (0.1-2.0 10^−6 cm/s), “+++” (2.0-10.010^−6 cm/s) or “++++” (>10.0 10^−6 cm/s).

**Q.** With `COC(=O)c1cccc(C)c1NC(=O)C[N+]1(Cc2ccccc2)CCCCCC1` [Compound 1A, 1-benzyl-1-(2-((2-(methoxycarbonyl)-6-methylphenyl)amino)-2-oxoethyl)azepan-1-ium Bromide] as the compound, how does the inhibition at 3 µM [1] read?
**A.** < 40%

**Q.** Which inhibition at 1 µM [1] does the source give for `CCOC(=O)c1cccc(C)c1NC(=O)C[N+]1(Cc2ccccc2)CCCCCC1` [Compound 2A] here?
**A.** < 40%

**Q.** Which inhibition at 100 µM [1] does the source give for `COC(=O)c1cccc(C)c1NC(=O)C[N+]1(Cc2ccccc2)CCCCC1` [Compound 3A] here?
**A.** 40 to 70%

**Q.** With `CCOC(=O)c1cccc(C)c1NC(=O)C[N+]1(Cc2ccccc2)CCCCC1` [Compound 4A] as the compound, how does the inhibition at 3 µM [1] read?
**A.** < 40%

**Q.** For `CCOC(=O)c1cccc(C)c1NC(=O)C[N+]1(Cc2ccccc2)CCCC1` [Compound 9A], which inhibition at 10 µM [1] is on record?
**A.** < 40%

**Q.** Which inhibition at 1 µM [1] does the source give for `CCOC(=O)c1cccc(C)c1NC(=O)C[N+]1(Cc2ccccc2)CCCCCCC1` [Compound 10A] here?
**A.** 40 to 70%

**Q.** Which inhibition at 30 µM [1] does the source give for `CCOC(=O)C1CCC[N+](CC(=O)Nc2c(C)cccc2C(=O)OC)(Cc2ccccc2)C1` (stereo not shown) [Compound 16A] here?
**A.** 40 to 70%

**Q.** With `CCNC(=O)C1CCC[N+](CC)(CC(=O)Nc2c(C)cccc2C(=O)OC)C1.O=C[O-]` (stereo not shown) [Compound 49] as the compound, how does the “NaV1.7 Intracellular Inhibition” value [2] read?
**A.** + (<30%)

**Q.** And the “PAMPA (10^−6 cm/s)” value [3]?
**A.** + (<0.1 10^−6 cm/s)

**Q.** For `CNC(=O)C[N+]1(CC(=O)Nc2c(C)cccc2C(=O)OC)CCCC(c2ccccc2)C1` (stereo not shown) [Compound 59A, 1-(2-((2-(methoxycarbonyl)-6-methylphenyl)amino)-2-oxoethyl)-1-(2-(methylamino)-2-oxoethyl)-3-phenylpiperidin-1-ium Bromide], which inhibition at 10 µM [1] is on record?
**A.** < 40%

**Q.** With `COC(=O)c1cccc(C)c1NC(=O)C[N+]1(CC(N)=O)CCCC(c2ccccc2)C1` (stereo not shown) [Compound 61A] as the compound, how does the inhibition at 100 µM [1] read?
**A.** 40 to 70%

**Q.** For `CC[N+]1(CC(=O)Nc2c(C)cccc2C(=O)OC)CCCC(c2ccccc2)C1` (stereo not shown) [Compound 65A], which inhibition at 10 µM [1] is on record?
**A.** 40 to 70%

**Q.** With `COC(=O)c1cccc(C)c1NC(=O)C[n+]1cccc(-c2ccccc2)c1` [Compound 66A, 1-(2-((2-(methoxycarbonyl)-6-methylphenyl)amino)-2-oxoethyl)-3-phenylpyridin-1-ium Bromide] as the compound, how does the inhibition at 30 µM [1] read?
**A.** 40 to 70%

**Q.** With `CCOC(=O)c1cccc(C)c1NC(=O)C[n+]1cccc(-c2ccccc2)c1` [Compound 67A] as the compound, how does the inhibition at 10 µM [1] read?
**A.** < 40%

**Q.** Which “NaV1.7 Intracellular Inhibition” value [2] does the source give for `CCOC(=O)c1cccc(C)c1NC(=O)C[n+]1cccn1C1CCCCC1.[Br-]` [Compound 70] here?
**A.** ++ (70-30%)

**Q.** And the “PAMPA (10^−6 cm/s)” value [3]?
**A.** + (<0.1 10^−6 cm/s)
